From ChEMBL document CHEMBL1150821, “A new metabolite from the marine bacterium Vibrio angustum S14” (2001)
Activity calls are given as the source filed them. No cut-off for these calls is given here.

Tests used:
Vibrio harveyi = test: Induction of bioluminescence in Vibrio harveyi UNSW at 10 uM relative to control; assay type: functional
[1] = test system: Agrobacterium tumefaciens; test: Induction of acylated homoserine lactone system-mediated traI-lacZ reporter gene expression in Agrobacterium tumefaciens A136 at 2.5 ug; assay type: functional, organism-based

| SMILES | fold change (FC) (Vibrio harveyi) | Activity [1] |
| --- | --- | --- |
| CC(O)CC(=O)N[C@H]1CCOC1=O (some centres undefined) | 128 | – |
| CCCC(=O)CC(=O)N[C@H]1CCOC1=O | – | Active |
| CCCCOC(OCC(C)C)C(C)(C)O (centres undefined) | 32 | Active |
